We go through 1 substance from patent publication US7741436B2, “Biologically active peptides and their use for repairing injured nerves” (priority 2001, dated 2010).

Holding throughout (type): cell-based
Assay [1] concerns human embryonic neocortical neurons. Nature of the assay: Survival of human embryonic neocortical neurons on injured glial cells of the human spinal cord. Conditions: 72 hrs. The source says: The CNS tissues were first placed in cold saline. The spinal cord tissues were identified under a stereomicroscope, and carefully freed of meninges. To obtain monolayer cultures of human spinal cord glial cells, the cells were dissociated by mechanical trituration using a Pasteur-pipette, and placed in Petri dishes (Corning, N.Y., USA) containing 10% fetal calf serum (Hyclone, Logan, UH) in DMEM-F12 (Gibco, U.K.) supplemented with penicillin and streptomycin as described (Liesi et al. 2001).
Human embryonic spinal cord glial cells were cultured till confluency in 10% fetal bovine serum as described (Liesi et al., 2001). The confluent cultures were trypsinized and cells replated at 100 000 cells/22 mm glass coverslip, and grown till confluency. The confluent cultures were changed into normal adult human serum, and injured by using a 18 G gauge sterile needle. The KDI peptide was added at 1 μg/ml (3 μM) and at 10 μg/ml (30 μM) concentration and the P1543 peptide (p20) was added at a concentration of 1 μM, and 50-100 000 freshly isolated human embryonic neocortical neurons were added on the glial cells. The control cultures had neurons added either without the peptide or the lesion. The cells were cultured for 72 hrs in 5% CO2/95% air at +37° C., and fixed for quantitation of neurons and measurement of their neuritic lengths. The neurons on glial monolayers were visualized by immunostaining using mouse monoclonal antibodies against a neuron-specific tubulin isoform (TUJ1). The results were evaluated by counting neurons in six random fields on 3 different coverslip per experiment. In this way, more than 300 neurons were counted per experiment. Statistical analysis of the results was performed using one-way analysis of Varians (ANOVA) and Student-Newman-Keuls multiple comparisons test on the Instat (v2.03) program (GraphPad, San Diego, Calif.).

Assay [2] concerns rat cerebellar granule neurons. Put plainly: Electrophysiology: voltage-clamped whole-cell patch recordings of currents induced by laminin-1-derived peptides and fusion proteins. As to conditions: whole-cell patch clamp, neurons on laminin-1 substratum. An excerpt:
Sixteen-day pregnant Sprague-Dawley female rats were obtained from Taconic Farms, and maintained at the animal facility of National Institute of Alcohol Abuse and Alcoholism (NTH), fed with NTH-31 diet, containing 20,000 IU/kg vitamin A after autoclaving. The rats were allowed to give birth, and cerebellar tissues of 3-day-old female pups were aseptically isolated as described previously (Matsuzawa et al., 1996a). A suspension of single cells was obtained by trypsinizing the cerebella as described elsewhere (Liesi and Wright, 1996), after which 10^5 cells were plated on 22 mm glass coverslip pre-coated with laminin-1. The cells were incubated in an atmosphere of 95% air/5% CO2 at +37° C. in RPMI 1640 culture medium supplemented with penicillin and streptomycin and 200 μM L-glutamine. After 24 hrs, the cells were used for electrophysiology.
Recordings were done at room temperature using a List EPC-7 patch-clamp amplifier in voltage-clamped whole-cell patch configuration as described previously (Liesi and Wright, 1996). Pipettes were pulled from borosilicate glass and lightly fire polished. Experiments were performed at room temperature. Whole-cell currents were recorded on a Gould 2400S strip chart recorder. Cell membrane potential was clamped at −40 mV unless otherwise noted. All bath solutions were applied through pinch-valves that controlled the flow from multiple reservoirs to a single 200 μm ID barrel of fused silica. Standard bath solution was RPMI 1640, buffered with 10 mM HEPES (pH 7.4). The standard pipette solution contained (in mM): CsMeSO4 100, CsCl 15, BAPTA 5, HEPES 10 (pH KOH-adjusted to 7.2). Tests for reversal potentials were conducted in low K^+ bath solution containing (in mM): NaCl 150, KCl 5, CaCl2 1, HEPES 10 (pH adjusted to 7.2 with NaOH) and a high K^+ bath solution, containing (in mM): NaCl 115, KCl 40, CaCl2 1, HEPES 10 (pH adjusted to 7.2 with NaOH). All bath solutions contained 300 nM TTX. […] Nernst reversal potentials were calculated according to Hille (1992). […]
(In general: The patch-clamp technique gives a direct electrical read-out from membranes.)

For assay [3], the system named is embryonal bodies of human CNS. Nature of the assay: Attachment and neurite outgrowth of embryonal bodies on white matter of cryostat sections of adult human spinal cord (myelin influence). As to conditions: 5-10 μg/ml. The method, then:
Embryonal bodies containing immature stem cells from spinal cord, or neocortex were obtained by placing the mechanically dissociated CNS-cells on 10 cm Petri dishes (Corning) in Neurobasal medium (Gibco, U.K.) with B27-supplement (Gibco, U.K.), antibiotics and 500 μM L-glutamine.
Cryostat sections (10 μm) of adult normal human spinal cord were cut in coronal plain on SuperFrost Plus slides (Menzel, Germany). Each slide had three sections. The slides with freshly cut sections were immediately placed in sterile Quadriperm-plates (In Vitro Systems & Services, Germany) and 10 ml of culture medium was added. The culture medium was 1.0% normal adult human serum in DMEM-F12 supplemented with penicillin and streptomycin. Two embryonal bodies were placed on areas of white matter on top of each section, and the cultures were placed in the incubator with 5% CO2/95% air at 98% humidity at +37° C. The KDI peptide (Multiple Peptide Systems, La Jolla, Calif.) was added in the medium at 1-10 μg/ml, and the 10-amino acid precursor (RDIAEIIKDI (SEQ ID NO: 1)) was added at equimolar concentrations. The control cultures received no peptide. After 10 days, the cultures were fixed and immunostained for neurofilament proteins and additional neuronal and glial markers to identify the neurites and cells within the embryonal bodies. Numbers of embryonal bodies attached, and extending neurites directly on the adult white matter tissue were counted on each slide and the results analyzed using one-way-variance-analysis (ANOVA). Numbers of long neurites (>100 μm) extending from embryonal bodies in control cultures and in cultures with 5-10 μg/ml of the KDI peptide in the culture medium were counted and a non-parametric Whitney-Mann test was used to analyze those results.

Consider KDI, for which the “attachment and neurite outgrowth of neocortical neurons on lesioned spinal cord glial cells” value in assay [1] (1 μg/ml soluble peptide, vs lesion control) is reported as “significantly (p<0.001) improved”. In addition, in assay [1] (1 μg/ml), the “improvement of attachment and neurite outgrowth of neocortical neurons compared to that induced by p20 (1 μg/ml)” value was “statistically significant”. In addition, the “neuronal survival (attachment and neurite outgrowth) of neocortical neurons on lesioned spinal cord glial cells” value in assay [1] (10 μg/ml soluble peptide, vs unlesioned and lesioned controls) is recorded as “no statistical difference of neuronal survival”. Moreover, the “induction of currents in cerebellar granule neurons” value in assay [2] is reported as “induced currents”. For the same substance, in assay [3] (10 days in vitro), the “extension of neurofilament-positive neurites from spinal cord embryonal bodies on white matter” value was “long neurofilament-positive nerve fibres extend out of the embryonal bodies”. Moreover, in assay [3] (10 days in vitro, p<0.0001 vs control), the “numbers of long neurites extending from embryonal bodies onto white matter” value is reported as “a large number of long neurites extended”. In assay [3] (10 days, vs control (p<0.01) and vs P1543 (p<0.01)), the “numbers of embryonal bodies attached and sending out neurites on white matter” value is on record as “significantly higher”.
